The target in assay [1] is T1, HSV-1 protease (Human herpesvirus 1, UniProt P10210). Kind of assay: biochemical. The protocol:
For experiments examining anion effects, buffer solutions were prepared with the sodium salt of the anion and the pH was adjusted to 7.5 with concentrated HCl where necessary (i.e., citrate, glutamate, malate). An exception was phosphate, where NaH2 PO4 was prepared in the buffer and the pH adjusted upward with NaOH.
Enzyme activity was measured with the peptide substrates […]-amide (SEQ.ID.NO.:2) and […]-amide (SEQ.ID.NO.:1), using HPLC for the separation of products from substrates as described in Darke et al., 1994, supra. The C-terminal cleavage products of enzymatic hydrolysis are SEKFKMW-amide (SEQ.ID.NO.:3) and […]-amide (SEQ.ID.NO.:4) respectively. Quantitation of the C-terminal cleavage product, containing tryptophan, in the HPLC effluent was with a Hewlett-Packard model 1046A fluorescence detector (excitation at 280 nm, emission at 350 nm). […] Reactions were performed at 37° C. in a pH 7.5 buffer containing 52 mM 4-morpholinoethanesulfonic acid (MES), 52 mM 3-(N-tris(hydroxymethyl)methylamino)-2-hyroxy-propanesulfonic acid (TAPSO) and 100 mM diethanolamine, 1 mM EDTA, 1 mM dithiothreitol, 0.1% bovine serum albumin, and the various additives listed in the Tables. Reactions were initiated by the addition of a stock HSV-1 protease solution (0.625 mg/ml) in the above buffer with no additives to a final concentration of 0.025 mg/ml (0.94 μM) and quenched with the addition of 5% H3 PO4. Activity assays comparing various anion and cosolvents effects were conducted with a substrate concentration of 53 μM. Activity in Tables 1 and 2 is expressed as relative to the case where no additive was present in the reaction mixture.

The target of assay [2] is T1, HSV-1 protease. Kind of assay: Susceptibility of HSV-1 protease to trypsin proteolysis (SDS-PAGE). It is filed as biochemical, Herpes Simplex Virus type 1. Also on record: Autoprocessing of the precursor to the mature 246 amino acid form of the enzyme; made in house; host or cells: E. coli. The note with it: trypsin 0.1 mg/ml, 37° C., 60 min; 0.8M citrate. The protocol:
HSV-1 protease was incubated for 60 minutes at 37° C. with or without trypsin, either with or without 0.8M sodium citrate present, as described in Example 3. Samples were analyzed with SDS-PAGE (16% gels) and stained with Coomassie brilliant blue. Lanes 1 and 2, no trypsin added; lanes 3 and 4, trypsin added at 0.1 mg/ml. Lanes 1 and 3, no citrate added; lanes 2 and 4, sodium citrate present at 0.8M during incubation. The arrow on the right indicates the position of 27 kDa, undigested HSV-1 protease. Molecular weight markers are in the leftmost lane, with the corresponding molecular weights marked in kDa.
In accordance with this invention, the sensitivity of native HSV-1 protease to trypsin was examined as a function of kosmotrope concentration. Following treatment of the enzyme with trypsin for 60 minutes, SDS-PAGE was performed to qualitatively examine the extent of trypsin digestion of the HSV-1 protease.
Trypsin treatment of the HSV-1 protease (0.15 mg/ml) was performed with 0.1 mg/ml trypsin at 37° C. for 60 min. Trypsin activity s measurements with the fluorogenic substrate BOC-Val-Pro-Arg-7-amino-4-methylcoumarin were performed at 37° C. After trypsin treatment, samples were boiled with SDS gel sample buffer and small volumes of sodium citrate were added to some samples to equalize the extent of band spreading on the gel. […]

Setting [3] is: pH 7.5, read-out: Relative activity of HSV-1 protease.
The mark [4] stands for this setting: anion (Na+ salt) at ionic strength = 0.8, 37° C., pH 7.5, substrate 53 μM, relative to no additive.
Setting [5] is: anion (Na+ salt) 0.2M, 37° C., pH 7.5, substrate 53 μM, relative to no additive, 200000 µM.
Setting [6] is: anion (Na+ salt) 0.8M, 37° C., pH 7.5, substrate 53 μM, relative to no additive, 800000 µM.

Each structure is given as a SMILES string. Where a name gives a salt, the structure may show the parent alone. Read-outs that look alike come from different tables or passages of the source.

T1 sequence (P10210 1-247): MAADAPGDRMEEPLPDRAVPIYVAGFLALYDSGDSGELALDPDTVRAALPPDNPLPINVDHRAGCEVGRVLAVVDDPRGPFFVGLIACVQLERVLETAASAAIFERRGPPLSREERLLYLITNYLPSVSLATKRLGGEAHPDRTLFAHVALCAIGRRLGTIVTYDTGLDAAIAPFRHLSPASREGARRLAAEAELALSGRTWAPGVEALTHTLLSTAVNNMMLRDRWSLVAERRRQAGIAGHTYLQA

For the compound `N.N.O=S(=O)(O)O` [(NH4)2 SO4], the “effect of anion/salt on HSV-1 protease activity (in words)” value (shortened to “effect of anion/salt”) on HSV-1 protease [1] is on record as “slightly less activating”.
With `[Br-].[K+]` [Br^-, bromide], the “Relative activity of HSV-1 protease” value was 0.23 at HSV-1 protease [1] (pH 7.5, 200000 µM) and 0.07 at HSV-1 protease [1] (pH 7.5, 800000 µM).
With `CC(=O)O` [CH3 COO^-], on HSV-1 protease [1] (setting [3]), the activity at 200000 µM was found to be 171% and the activity at 800000 µM was 703%.
In the case of `O=C(O)CC(O)(CC(=O)O)C(=O)O` [Citrate, sodium citrate], the “effect of anion/salt” value on HSV-1 protease [1] was “strong activation”. In addition, on HSV-1 protease [1], the “kcat /KM” value was found to be 4500 M⁻¹ s⁻¹. Moreover, the “amount of peptide cleavage product (SEKFKMW-amide) that accumulated in 60 minutes” value on HSV-1 protease [1] (0.8M sodium citrate in reaction mixture, HSV-1 protease 40 nM) came to 100 pmol. Moreover, at HSV-1 protease [1] (0.8M sodium citrate in reaction mixture, enzyme 0.93 μM), the “amount of peptide cleavage product that accumulated in 1 minute” value is reported as 100 pmol. Moreover, the “Relative activity of HSV-1 protease” value on HSV-1 protease [1] (setting [4]) worked out at 4.16. Also, the fold induction at 800000 µM stood at 202 at HSV-1 protease [1] (pH 7.5, read-out: enhancement of the observed hydrolytic rate (increase of activity)) and 860 on HSV-1 protease [1] (pH 7.5, read-out: increase of the protease activity (catalytic efficiency)). Besides, on HSV-1 protease [2], the “susceptibility of HSV-1 protease to trypsin digestion (in words)” value is reported as “loss in susceptibility of HSV-1 protease to trypsin digestion”.
Regarding `[O-][Cl+3]([O-])([O-])O` [ClO4^-, perchlorate], on HSV-1 protease [1], the “effect of anion/salt” value is “inhibitory”. For the same compound, the “Relative activity of HSV-1 protease” value at HSV-1 protease [1] (setting [5]) came out at 0.06; on HSV-1 protease [1] (setting [6]) it was 0.00.
In the same order, the values of `Cl` [Cl^-, Chloride] are “little effect”, 0.96 and 1.08.
As to `N[C@H](CCC(=O)O)C(=O)O` [D-glutamate], the activity at 200000 µM at HSV-1 protease [1] (setting [3]) came to 290%.
On to `O=C(O)C[C@@H](O)C(=O)O` [D-malate], for which the activity at 200000 µM at HSV-1 protease [1] (setting [3]) is 409%.
Regarding `CN(C)C=O` [Dimethyl formamide], the “effect of co-solvent on HSV-1 protease activity (in words)” value (from here on “effect of co-solvent”) at HSV-1 protease [1] is reported as “strongly inactivating”.
For `C[S+](C)[O-]` [Dimethyl sulfoxide], the inhibition at 2 % on HSV-1 protease [1] (read-out: reduction of HSV protease activity, 2% DMSO with 0.8M sodium citrate present) worked out at 8%; on HSV-1 protease [1] (read-out: reduction of HSV protease activity, 2% DMSO, no kosmotropic anion), 37%.
`CCO` [Ethanol]: the “effect of co-solvent” value on HSV-1 protease [1] is reported as “strongly inactivating”. Further, at HSV-1 protease [1] (setting [3]), the activity at 2 % was determined as 27%, the activity at 5 % was found to be 10% and the activity at 10 % was 0%.
For `OCCO` [Ethylene glycol], at HSV-1 protease [1] (setting [3]), the activity at 2 % came out at 63%, the activity at 5 % is 67% and the activity at 10 % was 45%.
With `F` [F^-], on HSV-1 protease [1], the “effect of anion/salt” value was “some activation”. The “Relative activity of HSV-1 protease” value at HSV-1 protease [1] (setting [5]) is on record as 6.15.
Regarding `OCC(O)CO` [Glycerol], the “effect of co-solvent” value at HSV-1 protease [1] is given as “Activation was observed, albeit to a lesser extent”.
`O=P(O)(O)OP(=O)(O)O` [HP2 O7^3-]: the “Relative activity of HSV-1 protease” value on HSV-1 protease [1] (setting [5]) was determined as 7.32.
As to `O=P(O)(O)O` [HPO4^2- /PO4^3-, sodium phosphate], the “effect of anion/salt” value on HSV-1 protease [1] is listed as “strong activation”. The “kcat /KM” value at HSV-1 protease [1] (0.8M salt present) was 2200 M⁻¹ s⁻¹. Also, the “Relative activity of HSV-1 protease” value on HSV-1 protease [1] (setting [5]) was 5.68.
Take `I` [I^-, iodide]: the results for the “effect of anion/salt” value on HSV-1 protease [1] and at HSV-1 protease [1] (listed as iodide) were “inhibition” and “inhibitory”, respectively. The “Relative activity of HSV-1 protease” value on HSV-1 protease [1] (setting [5]) is given as 0.07; at HSV-1 protease [1] (setting [6]), 0.00.
On to `O=C(O)CC(C(=O)O)C(O)C(=O)O` (centres unmarked) [Isocitrate], for which the “Relative activity of HSV-1 protease” value at HSV-1 protease [1] (setting [4]) is listed as 3.53. Also, the activity at 200000 µM at HSV-1 protease [1] (setting [3]) turned out to be 772%.
Consider `N[C@@H](CCC(=O)O)C(=O)O` [L-glutamate], for which the activity at 200000 µM at HSV-1 protease [1] (setting [3]) was 245%.
Same read-out and setting: for `O=C(O)C[C@H](O)C(=O)O` [L-malate] the value was 404%.
As to `O=S(=O)(O)O` [SO4^2-, sulfate], at HSV-1 protease [1], the “effect of anion/salt” value is reported as “strong activation”. Moreover, the “Relative activity of HSV-1 protease” value on HSV-1 protease [1] (setting [5]) stood at 4.70.
For the compound `OC[C@@H](O)[C@@H](O)[C@H](O)[C@@H](O)CO` [Sorbitol], on HSV-1 protease [1], the “effect of co-solvent” value is “Activation was observed, albeit to a lesser extent”.
Consider `O=C(O)CCC(=O)O` [Succinate], for which the “Relative activity of HSV-1 protease” value on HSV-1 protease [1] (pH 7.5) was 6.03. Also, on HSV-1 protease [1] (setting [3]), the activity at 200000 µM is 397%.
With `O=C(O)/C=C(/CC(=O)O)C(=O)O` [cis-Aconitrate], at HSV-1 protease [1] (setting [4]), the “Relative activity of HSV-1 protease” value was 2.40. Further, the activity at 200000 µM at HSV-1 protease [1] (setting [3]) was determined as 506%.

The record behind these values is patent US5618685A, “Activation of herpes simplex virus protease by kosmotropes” (priority 1995, dated 1997).
